Targets include KPC-2 (Klebsiella pneumoniae, UniProt Q9F663); OXA-48 (Klebsiella pneumoniae, UniProt Q6XEC0); CTX-M-15 (Escherichia coli, UniProt Q9EXV5); TEM-1 (Escherichia coli, UniProt P62593); OXA-1 (Escherichia coli, UniProt P13661); SHV-1 (Klebsiella pneumoniae, UniProt P0AD64); OXA-11 (Pseudomonas aeruginosa, UniProt Q06778).
The test system of the next assay is P. aeruginosa CIP107051. In words: MIC of compound alone, broth microdilution. It counts as cell-based. The settings on record: Pseudomonas aeruginosa; strain CIP107051; compound alone; read-out: MIC compounds of the invention alone. In outline: (§1)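 Log-phase bacteria were diluted to a final 5×10^5 cfu/mL in cation-adjusted Mueller-Hinton broth and incubated 16-20 h at 35° C in ambient air. MIC was taken as the lowest concentration preventing growth, judged visually.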
For orientation: Broth dilution looks for growth in wells or tubes with falling amounts of substance.

The test system of a further assay is E. cloacae P99. In words: MIC of compound alone, broth microdilution. The conditions noted are these: Enterobacter cloacae; strain P99; compound alone; read-out: MIC compounds of the invention alone. It counts as cell-based. In outline:
as §1

A further assay concerns E. coli 190317. In words: MIC of compound alone, broth microdilution. It counts as cell-based. The settings on record: Escherichia coli; strain 190317; compound alone; read-out: MIC compounds of the invention alone. A digest of the protocol:
as §1

Another assay concerns K. pneumoniae BAA-1898. The assay is described as follows: MIC of compound alone, broth microdilution. It is filed as cell-based. The conditions noted are these: Klebsiella pneumoniae, BAA1898; strain BAA-1898; compound alone; read-out: MIC compounds of the invention alone. A digest of the protocol: as §1
The test system of the next assay is K. pneumoniae 6299. The assay is described as follows: MIC of compound alone, broth microdilution. It is filed as cell-based. The settings on record: Klebsiella pneumoniae; strain 6299; compound alone; read-out: MIC compounds of the invention alone. A digest of the protocol:
as §1

The target in another assay is OXA-15 (Pseudomonas aeruginosa, UniProt Q51574). The assay is described as follows: biochemical.
The target in a further assay is AmpC (P99) (Enterobacter cloacae, UniProt P05364). The assay is described as follows: biochemical.
The target in the next assay is AmpC (PAE) (Pseudomonas aeruginosa, UniProt P24735). The assay is described as follows: biochemical.
In the next assay the target is CMY-37 (Citrobacter freundii, UniProt P05193). The settings on record: read-out: IC50 β-lactamase CMY-37.
[1] abbreviates: class (C), nitrocefin 200 μM, 30-min pre-incubation, enzyme 0.2 nM.

In patent US10722520B2, “Heterocyclic compounds and their use in preventing or treating bacterial infections” (MUTABILIS, priority 2016, dated 2020) one finds IC50 and MIC data, which are given here for nine compounds.

Structures can show the parent of a compound that is named as a salt. Where two headings read alike, the source gives them in different places.

A word on the IC50: it is the point on the concentration scale where inhibition reaches its midpoint. For orientation: MIC means the smallest concentration in the dilution series that meets the test's criterion for growth inhibition. As for `NC(=O)CNCc1cn(C2=CC3CN(C2)C(=O)N3OS(=O)(=O)O)nn1` (stereo not drawn) [Example 66, [3-(4-(2-(methylamino)acetamide)triazol-1-yl)-7-oxo-1,6-diazabicyclo[3.2.1]oct-3-en-6-yl]hydrogen sulfate], the IC50 on KPC-2 is 6.1 nM; against OXA-48 it was 0.64 nM; on CTX-M-15, 0.54 nM; at OXA-15, 7.5 nM; against TEM-1, 0.36 nM; against OXA-1, 87 nM. In addition, the IC50 at SHV-1 turned out to be 3.1 nM; against OXA-11, 140 nM; against AmpC (P99), 14 nM; against AmpC (PAE), 250 nM; on CMY-37 (setting [1]) it was 26 nM. Also, the MIC is greater than 32 µg/mL in the assay with P. aeruginosa CIP107051; 8 µg/mL with E. cloacae P99; 4 µg/mL with E. coli 190317; 16 µg/mL in the assay with K. pneumoniae BAA-1898; 32 µg/mL in the assay with K. pneumoniae 6299.

Turning to `O=C1N2CC(n3cc(CNCCO)nn3)=CC(C2)N1OS(=O)(=O)O` (stereo not drawn) [Example 67, [3-(4-(2-(methylamino)ethanol)triazol-1-yl)-7-oxo-1,6-diazabicyclo[3.2.1]oct-3-en-6-yl]hydrogen sulfate], the IC50 against KPC-2 was 20 nM; against OXA-48, 1.6 nM; against CTX-M-15 it was 1.3 nM; against OXA-15, 18 nM; at TEM-1 it was 1.2 nM; against OXA-1 it was 270 nM. The IC50 on SHV-1 is 8.4 nM; at OXA-11, 250 nM; at AmpC (P99) it was 38 nM; against AmpC (PAE), 720 nM; at CMY-37 (setting [1]) it was 100 nM. Moreover, the minimal inhibitory concentration (MIC) in the assay on P. aeruginosa CIP107051 was greater than 32 µg/mL; with E. cloacae P99 it was 4 µg/mL; in the assay with E. coli 190317 it was 2 µg/mL; in the assay on K. pneumoniae BAA-1898, greater than 32 µg/mL; with K. pneumoniae 6299, greater than 32 µg/mL.

For `O=C1N2CC(n3nccc3CCO)=CC(C2)N1OS(=O)(=O)[O-].[Na+]` (stereo not drawn) [Example 68, sodium [3-[5-(2-hydroxyethyl)pyrazol-1-yl]-7-oxo-1,6-diazabicyclo[3.2.1]oct-3-en-6-yl]sulfate], the IC50 was 300 nM at KPC-2; 49 nM on OXA-48; 7.1 nM at CTX-M-15; 4100 nM at OXA-15; 0.73 nM at TEM-1; 1200 nM against OXA-1. Also, the 50% inhibitory concentration (IC50) was determined as 2.8 nM against SHV-1; 3900 nM against OXA-11; 170 nM on AmpC (P99); 430 nM against AmpC (PAE); 130 nM on CMY-37. For the same compound, the MIC in the assay with P. aeruginosa CIP107051, in the assay on E. cloacae P99, in the assay on E. coli 190317, in the assay on K. pneumoniae BAA-1898 and in the assay with K. pneumoniae 6299 was greater than 32 µg/mL throughout.

In the case of `O=C1N2CC(n3ccnc3CO)=CC(C2)N1OS(=O)(=O)[O-].[Na+]` (stereo not drawn) [Example 70, sodium [3-[2-(hydroxymethyl)imidazol-1-yl]-7-oxo-1,6-diazabicyclo[3.2.1]oct-3-en-6-yl]sulfate], the concentration for half-maximal inhibition (IC50) against KPC-2 is 51 nM; against OXA-48, 6.2 nM; against CTX-M-15, 3.5 nM; against OXA-15, 30 nM; at TEM-1, 0.63 nM; against OXA-1, 92 nM. Further, the IC50 on SHV-1 came to 2.3 nM; at OXA-11 it was 170 nM; at AmpC (P99) it was 94 nM; at AmpC (PAE), 600 nM; on CMY-37 it was 120 nM. Moreover, the MIC in the assay with P. aeruginosa CIP107051 was greater than 32 µg/mL; in the assay on E. cloacae P99 it was greater than 32 µg/mL; with E. coli 190317 it was 32 µg/mL; in the assay on K. pneumoniae BAA-1898 it was 32 µg/mL; with K. pneumoniae 6299 it was greater than 32 µg/mL.

Consider `O=C1N2CC(n3cc(CO)cn3)=CC(C2)N1OS(=O)(=O)[O-].[Na+]` (stereo not drawn) [Example 71, sodium [3-[4-(hydroxymethyl)pyrazol-1-yl]-7-oxo-1,6-diazabicyclo[3.2.1]oct-3-en-6-yl]sulfate], for which the IC50 at KPC-2 was 42 nM; against OXA-48, 12 nM; on CTX-M-15, 0.78 nM; on OXA-15, 55 nM; against TEM-1, 1.4 nM; against OXA-1 it was 450 nM. Also, the IC50 was 9.6 nM against SHV-1; 260 nM against OXA-11; 19 nM at AmpC (P99); 47 nM against AmpC (PAE); 10 nM on CMY-37. Further, the MIC in the assay on P. aeruginosa CIP107051 was greater than 32 µg/mL; in the assay with E. cloacae P99, 16 µg/mL; with E. coli 190317, 4 µg/mL; in the assay on K. pneumoniae BAA-1898 it was 16 µg/mL; in the assay on K. pneumoniae 6299, 32 µg/mL.

Take `O=C(NCCN1CCOCC1)c1ccn(C2=CC3CN(C2)C(=O)N3OS(=O)(=O)O)n1` (stereo not drawn) [Example 72, [3-[3-(2-morpholinoethylcarbamoyl)pyrazol-1-yl]-7-oxo-1,6-diazabicyclo[3.2.1]oct-3-en-6-yl]hydrogen sulfate]: the concentration for half-maximal inhibition (IC50) at KPC-2 amounted to 7 nM; at OXA-48, 2.5 nM; against CTX-M-15, 0.57 nM; against OXA-15 it was 43 nM; against TEM-1, 0.91 nM; at OXA-1, 100 nM. For the same compound, the half-maximal inhibitory concentration (IC50) is 6.7 nM at SHV-1; 36 nM against OXA-11; 43 nM against AmpC (P99); 540 nM at AmpC (PAE); 86 nM at CMY-37 (setting [1]). For the same compound, the MIC in the assay with P. aeruginosa CIP107051, in the assay on E. cloacae P99, in the assay on E. coli 190317, with K. pneumoniae BAA-1898 and in the assay on K. pneumoniae 6299 was greater than 32 µg/mL in each case.

Regarding `O=C(Nc1ccn(C2=CC3CN(C2)C(=O)N3OS(=O)(=O)O)n1)c1cncs1` (stereo not drawn) [Example 77, [3-[3-[thiazole-5-carbonyl]amino]pyrazol-1-yl]-7-oxo-1,6-diazabicyclo[3.2.1]oct-3-en-6-yl]hydrogen sulfate], the IC50 against KPC-2 stood at 11 nM; against OXA-48, 7.8 nM; against CTX-M-15 it was 1.5 nM; against OXA-15, 46 nM; on TEM-1 it was 1.1 nM; against OXA-1 it was 140 nM. The concentration for half-maximal inhibition (IC50) came to 5.2 nM at SHV-1; 16 nM against OXA-11; 11 nM at AmpC (P99); 58 nM on AmpC (PAE); 7.1 nM on CMY-37 (setting [1]). Also, the MIC in the assay with P. aeruginosa CIP107051, in the assay with E. cloacae P99, in the assay on E. coli 190317, in the assay on K. pneumoniae BAA-1898 and in the assay with K. pneumoniae 6299 was greater than 32 µg/mL in each case.

With `O=C(Nc1ncns1)c1ccn(C2=CC3CN(C2)C(=O)N3OS(=O)(=O)O)n1` (stereo not drawn) [Example 79, [7-oxo-3-[3-(1,2,4-thiadiazol-5-ylcarbamoyl)pyrazol-1-yl]-1,6-diazabicyclo[3.2.1]oct-3-en-6-yl]hydrogen sulfate], the concentration for half-maximal inhibition (IC50) was 4.4 nM against KPC-2; 4.7 nM on OXA-48; 0.46 nM on CTX-M-15; 46 nM at OXA-15; 0.36 nM against TEM-1; 65 nM against OXA-1. The IC50 at SHV-1 came to 0.98 nM; against OXA-11 it was 19 nM; against AmpC (P99) it was 14 nM; at AmpC (PAE), 95 nM; on CMY-37 (setting [1]) it was 8.6 nM. Moreover, the MIC with P. aeruginosa CIP107051, in the assay with E. cloacae P99, in the assay on E. coli 190317, with K. pneumoniae BAA-1898 and in the assay on K. pneumoniae 6299 was greater than 32 µg/mL each time.

`O=C(Nc1ccccn1)c1ccn(C2=CC3CN(C2)C(=O)N3OS(=O)(=O)[O-])n1.[Na+]` (stereo not drawn) [Example 80, sodium [7-oxo-3-[3-(2-pyridylcarbamoyl)pyrazol-1-yl]-1,6-diazabicyclo[3.2.1]oct-3-en-6-yl]sulfate]: the IC50 on KPC-2 is 2.6 nM; against OXA-48, 0.86 nM; on CTX-M-15, 0.29 nM; against OXA-15 it was 11 nM; on TEM-1, 0.27 nM; against OXA-1, 30 nM. Also, the 50% inhibitory concentration (IC50) stood at 1.4 nM at SHV-1; 5.5 nM at OXA-11; 7.9 nM at AmpC (P99); 150 nM against AmpC (PAE); 12 nM at CMY-37. The MIC in the assay with P. aeruginosa CIP107051, with E. cloacae P99, in the assay with E. coli 190317, in the assay with K. pneumoniae BAA-1898 and with K. pneumoniae 6299 was greater than 32 µg/mL in each case.
